For 22 compounds, Ki results are on record in patent publication US5712300A, “Hydroxamic acid derivatives useful for the treatment of diseases related to connective tissue degradation” (priority 1997, dated 1998).

Assay type in all cases: biochemical
Assay [1] has as its target Stromelysin (Homo sapiens, UniProt P08254). Put plainly: MMP inhibition by particle concentration fluorescence technique (stromelysin). The note with it: pH 7.5; 15 min enzyme preincubation; substrate 1-3 h at room temperature; read-out: MMP Inhibition Constants, Stromelysin Ki. The text has this: An inhibitor binds to MMP enzymes prevents the degradation of a substrate of stromelysin, gelatinase, or collagenase. The substrate is attached with a fluorescein and a biotin. The intact substrate then binds to an avidin-coated particle via the biotin moiety. Once the particle is washed and dried, a fluorescent signal is generated since the fluorescent group is attached to the particle. Without an inhibitor present, the substrate is degraded by MMP enzymes and the fluorescein group is removed, therefore, no fluorescent signal can be detected. […] Serial two-fold dilutions of each compound are prepared. A concentrated, activated enzyme solution is transferred into each plate of the testing compounds, and the mixture is incubated at room temperature for 15 minutes.

For assay [2], the target named is Gelatinase. In words: MMP inhibition by particle concentration fluorescence technique (gelatinase). Particulars: pH 7.5; 15 min enzyme preincubation; substrate 1-3 h at room temperature; read-out: MMP Inhibition Constants, Gelatinase Ki. The method, then:
(§1) Inhibitory activity is evaluated in one or more of the MMP enzymes (stromelysin, gelatinase, and collagenase) in vitro using a particle concentration fluorescence techniques. An inhibitor binds to MMP enzymes prevents the degradation of a substrate of stromelysin, gelatinase, or collagenase. The substrate is attached with a fluorescein and a biotin. The intact substrate then binds to an avidin-coated particle via the biotin moiety. Once the particle is washed and dried, a fluorescent signal is generated since the fluorescent group is attached to the particle. Without an inhibitor present, the substrate is degraded by MMP enzymes and the fluorescein group is removed, therefore, no fluorescent signal can be detected. Testing compounds are dissolved in DMSO to the desired concentration, then the solutions are diluted to 1:5 with MMP buffer (50 mM Tris-HCl, pH 7.5; 150 mM NaCl; 0.02% NAN3). Serial two-fold dilutions of each compound are prepared. A concentrated, activated enzyme solution is transferred into each plate of the testing compounds, and the mixture is incubated at room temperature for 15 minutes. Thawed MMP substrate is then added into all plates, and the plates are incubate in the dark for 1-3 hours at room temperature. At this point, the substrate mixture is reacted with 0.1% avidin-coated polystyrene particles.

Assay [3] addresses T1, Collagenase (Homo sapiens, UniProt P03956).
T1 sequence (P03956 100-469): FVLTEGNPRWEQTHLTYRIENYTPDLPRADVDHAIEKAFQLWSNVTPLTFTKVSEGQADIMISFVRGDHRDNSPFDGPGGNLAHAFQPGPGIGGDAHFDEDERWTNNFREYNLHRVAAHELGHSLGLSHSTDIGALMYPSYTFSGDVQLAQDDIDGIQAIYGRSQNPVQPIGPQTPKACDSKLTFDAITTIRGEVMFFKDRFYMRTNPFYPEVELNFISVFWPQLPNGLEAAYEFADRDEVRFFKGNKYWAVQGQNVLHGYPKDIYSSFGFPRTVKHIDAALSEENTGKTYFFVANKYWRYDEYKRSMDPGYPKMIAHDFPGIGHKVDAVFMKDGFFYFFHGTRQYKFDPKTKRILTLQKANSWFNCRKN
In words: MMP inhibition by particle concentration fluorescence technique (collagenase). Particulars: pH 7.5; 15 min enzyme preincubation; substrate 1-3 h at room temperature; read-out: MMP Inhibition Constants, Collagenase Ki. The protocol: as §1

Stromelysin, sequence (P08254 100-477): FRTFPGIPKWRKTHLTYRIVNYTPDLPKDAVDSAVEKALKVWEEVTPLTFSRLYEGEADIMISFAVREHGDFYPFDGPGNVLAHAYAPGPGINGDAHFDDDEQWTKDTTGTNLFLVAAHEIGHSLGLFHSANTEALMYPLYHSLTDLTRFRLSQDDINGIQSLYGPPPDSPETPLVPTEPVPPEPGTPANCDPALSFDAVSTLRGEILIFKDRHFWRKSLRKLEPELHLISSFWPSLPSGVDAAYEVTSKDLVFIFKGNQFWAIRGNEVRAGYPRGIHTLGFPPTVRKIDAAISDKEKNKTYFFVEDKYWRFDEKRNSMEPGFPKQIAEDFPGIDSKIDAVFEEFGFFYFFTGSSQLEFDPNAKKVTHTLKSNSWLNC

Turning to `CC(C)C[C@@]1([C@@H](CCN2C(=O)c3cc4ccccc4cc3C2=O)C(=O)NO)CCN(CCc2ccccc2)C1=O` (relative stereo) [Example 6], the Ki (in general, a dissociation constant, usually derived from enzyme kinetics or from competition with a known ligand) was 0.491 µM in assay [1] and 0.082 µM in assay [2].
Consider `CC(C)C[C@@]1([C@@H](CCN2C(=O)c3c(F)c(F)c(F)c(F)c3C2=O)C(=O)NO)CCN(CCc2ccccc2)C1=O` (relative stereo) [Example 7, N-Hydroxy-3-(2-methylpropyl)-2-oxo-1-(2-phenylethyl)-α-[2-(4,5,6,7-tetrafluoro-1,3-dihydro-1,3-dioxo-2H-isoindol-2-yl)ethyl]-3-pyrrolidineacetamide], for which the Ki turned out to be 1.27 µM in assay [1] and 1.42 µM in assay [2].
On the same counts, the results for `CC(C)C[C@@]1([C@@H](CCN2C(=O)c3cc(Cl)c(Cl)cc3C2=O)C(=O)NO)CCN(CCc2ccccc2)C1=O` (relative stereo) [Example 8, α-[2-(5,6-Dichloro-1,3-dihydro-1,3-dioxo-2H-isoindol-2-yl)ethyl]-N-hydroxy-3-(2-methylpropyl)-2-oxo-1-(2-phenylethyl)-3-pyrrolidineacetamide] are 1.14 µM and 0.734 µM.
Take `CC(C)C[C@@]1([C@@H](CCN2C(=O)c3cccc([N+](=O)[O-])c3C2=O)C(=O)NO)CCN(CCc2ccccc2)C1=O` (relative stereo) [Example 10, N-Hydroxy-3-(2-methylpropyl)-α-[2-(4-nitro-1,3-dihydro-1,3-dioxo-2H-isoindol-2-yl)ethyl]-2-oxo-1-(2-phenylethyl)-3-pyrrolidineacetamide]: the Ki in assay [1] was found to be 6.04 µM.
`CC(C)C[C@@]1([C@@H](CCN2C(=O)c3cccc(F)c3C2=O)C(=O)NO)CCN(CCc2ccccc2)C1=O` (relative stereo) [Example 12, α-[2-(4-Fluoro-1,3-dihydro-1,3-dioxo-2H-isoindol-2-yl)ethyl]-N-hydroxy-3-(2-methylpropyl)-2-oxo-1-(2-phenylethyl)-3-pyrrolidineacetamide]: the results for the Ki in assay [1] and in assay [2] were 0.12 µM and 0.312 µM, respectively.
`CC(C)C[C@@]1([C@@H](CCN2C(=O)c3c(F)ccc(F)c3C2=O)C(=O)NO)CCN(CCc2ccccc2)C1=O` (relative stereo) [Example 13, α-[2-(4,7-Difluoro-1,3-dihydro-1,3-dioxo-2H-isoindol-2-yl)ethyl]-N-hydroxy-3-(2-methylpropyl)-2-oxo-1-(2-phenylethyl)-3-pyrrolidineacetamide]: the Ki is 0.334 µM in assay [1] and 0.28 µM in assay [2].
Regarding `CC(C)C[C@@]1([C@@H](CCSc2cccs2)C(=O)NO)CCN(CCc2ccccc2)C1=O` (relative stereo) [Example 17, N-Hydroxy-3-(2-methylpropyl)-2-oxo-1-(2-phenylethyl)-α-[2-(2-thienylthio)ethyl]-3-pyrrolidineacetamide], the Ki in assay [1] stood at 2.22 µM; in assay [2], 4.09 µM.
For `CC(C)C[C@@]1([C@@H](CCCSc2cccs2)C(=O)NO)CCN(CCc2ccccc2)C1=O` (relative stereo) [Example 18], the Ki amounted to 1.47 µM in assay [1] and 3.04 µM in assay [2].
Consider `CC(C)C[C@@]1([C@@H](CCN2C(=O)c3c(F)c(F)c(F)c(F)c3C2=O)C(=O)NO)CCN(Cc2ccccc2)C1=O` (relative stereo) [Example 24, N-Hydroxy-3-(2-methylpropyl)-2-oxo-1-(phenylmethyl)-α-[2-(4,5,6,7-tetrafluoro-1,3-dihydro-1,3-dioxo-2H-isoindol-2-yl)ethyl]-3-pyrrolidineacetamide], for which the Ki in assay [1] stood at 7 µM.
As for `CNC(=O)CN1CC[C@@](CC(C)C)([C@@H](CCN2C(=O)c3ccccc3C2=O)C(=O)NO)C1=O` (relative stereo) [Example 26, α^3-[2-(1,3-Dihydro-1,3-dioxo-2H-isoindol-2-yl)ethyl]-N^3-hydroxy-N^1-methyl-3-(2-methylpropyl)-2-oxo-1,3-pyrrolidinediacetamide], the Ki in assay [1] is 0.713 µM; in assay [2], 0.998 µM.
In the same order, the values of `CNC(=O)CN1CC[C@@](CC(C)C)([C@@H](CCN2C(=O)c3c(F)c(F)c(F)c(F)c3C2=O)C(=O)NO)C1=O` (relative stereo) [Example 27, N^3 -Hydroxy-N^1-methyl-3-(2-methylpropyl)-2-oxo-α^3-[2-(4,5,6,7-tetrafluoro-1,3-dihydro-1,3-dioxo-2H-isoindol-2-yl)ethyl]-1,3-pyrrolidinediacetamide] are 11 µM and 16.5 µM.
As for `CC(C)C[C@@]1([C@@H](CCNS(=O)(=O)c2ccc(F)cc2)C(=O)NO)CCN(CCc2ccccc2)C1=O` (relative stereo) [Example 81, α-[2-[[(4-Fluorophenyl)sulfonyl]amino]ethyl]-N-hydroxy-3-(2-methylpropyl)-2-oxo-1-(2-phenylethyl)-3-pyrrolidineacetamide], in assay [2], the Ki turned out to be 1.4 µM.
For `CC(C)C[C@@]1([C@@H](CCN2Cc3cc(F)c(F)cc3C2=O)C(=O)NO)CCN(CCc2ccccc2)C1=O` (relative stereo) [Example 85, 5,6-Difluoro-1,3-dihydro-N-hydroxy-α-[3-(2-methylpropyl)-2-oxo-1-(2-phenylethyl)-3-pyrrolidinyl]-1-oxo-2H-isoindole-2-butanamide], the figures for the Ki in assay [1] and in assay [2] were 0.116 µM and 0.031 µM, respectively.
`CC(C)CC1(C(CSc2cccs2)C(=O)NO)CCN(CCc2ccccc2)C1=O` (stereo not drawn) [Example 19, N-Hydroxy-3-(2-methylpropyl)-2-oxo-1-(2-phenylethyl)-α-[2-(2-thienylthio)methyl]-3-pyrrolidineacetamide]: the Ki in assay [1] worked out at 2.77 µM; in assay [2] it was 2.47 µM.
Consider `CNC(=O)[C@H](CC1CCCCC1)N1CC[C@](CC(=O)NO)(CC(C)C)C1=O` [Example 33, [S-(R*,R*)]-α^1-(Cyclohexylmethyl)-N^3-hydroxy-N^1-methyl-3-(2-methylpropyl)-2-oxo-1,3-pyrrolidinediacetamide], for which the Ki in assay [3] was determined as 0.031 µM.
In the case of `CC(C)CC1(CC(=O)NO)CC(=O)N(CCc2ccccc2)C1=O` (stereo not drawn) [Example 35, N-Hydroxy-3-(2-methylpropyl)-2,5-dioxo-1-(2-phenylethyl)-3-pyrrolidineacetamide], in assay [1], the Ki amounted to 3.12 µM.
In the case of `CC(C)CC1(CC(=O)NO)C(=O)N(CCc2ccccc2)C(=O)N1C` (stereo not drawn) [Example 36, N-Hydroxy-3-methyl-4-(2-methylpropyl)-2,5-dioxo-1-(2-phenylethyl)-4-imidazolidineacetamide], the inhibitory constant (Ki) is 2.4 µM in assay [1] and 44 µM in assay [2].
In the case of `CC(C)CC1(CC(=O)NO)NC(=O)N(CCc2ccccc2)C1=O` (stereo not drawn) [Example 37, N-Hydroxy-4-(2-methylpropyl)-2,5-dioxo-1-(2-phenylethyl)-4-imidazolidineacetamide], the Ki in assay [1] came to 4.74 µM.
Take `CNC(=O)[C@H](Cc1ccccc1)N1CC[C@@](CC(C)C)([C@H](CCN2C(=O)c3ccccc3C2=O)C(=O)NO)C1=O` [Example 58, [3S-[1(R*),3R*(R*)]]-α^3-[2-(1,3-Dihydro-1,3-dioxo-2H-isoindol-2-yl)ethyl]-N^3-hydroxy-N^1-methyl-3-(2-methylpropyl)-2-oxo-α^1-(phenylmethyl)-1,3-pyrrolidinediacetamide]: the Ki was 0.023 µM in assay [1] and 0.0029 µM in assay [2].
Regarding `CC(C)C[C@@]1([C@H](CCN2C(=O)c3ccccc3C2=O)C(=O)NO)CCN(CCc2ccccc2)C1=O` [Example 71, [S-(R*,R*)]-1,3-Dihydro-N-hydroxy-α-[3-(2-methylpropyl)-2-oxo-1-(2-phenylethyl)-3-pyrrolidinyl]-1,3-dioxo-2H-isoindole-2-butanamide], the Ki in assay [3] turned out to be 0.098 µM.
Consider `CC(C)C[C@@]1([C@@H](CCNS(=O)(=O)c2ccc(F)cc2)C(=O)NO)CCN(CCc2ccccc2)C1=O` [Example 84, [R-(R*,S*)]-α-[2-[[(4-Fluorophenyl)sulfonyl]amino]ethyl]-N-hydroxy-3-(2-methylpropyl)-2-oxo-1-(2-phenylethyl)-3-pyrrolidineacetamide], for which the Ki in assay [2] came out at 3 µM.
Turning to `CC(C)C[C@@]1([C@@H](CCN2Cc3cc(F)c(F)cc3C2=O)C(=O)NO)CCN(CCc2ccccc2)C1=O` [Example 89, [R-(R*,S*)]-5,6-Difluoro-1,3-dihydro-N-hydroxy-α-[3-(2-methylpropyl)-2-oxo-1-(2-phenylethyl)-3-pyrrolidinyl]-1-oxo-2H-isoindole-2-butanamide], the results for the Ki in assay [1] and in assay [2] were 0.318 µM and 0.146 µM, respectively.
